Among the data in DBAASP are MIC values, retold here.

SMILES strings stand for the structures. In brackets after ≈: the same amount, converted by molar mass.

Among the test systems are Acinetobacter baumannii; Pseudomonas aeruginosa; Klebsiella pneumoniae; Escherichia coli K-12.
Common to all, as to assay: ≥ marks a high value that may be exact or a test limit, other limits are often not marked, values filed in µg/mL are converted to µM
The test system of experiment [1] is Micrococcus luteus ATCC 4698.
For experiment [2], the system named is Escherichia coli NCTC 10418.
For experiment [3], the system named is Staphylococcus aureus NCTC 10788.
Experiment [4] has as its system Candida albicans NCPF 1467.
Experiment [5] concerns Xanthomonas vesicatoria DSM 50861.
Experiment [6] concerns Pectobacterium carotovorum subsp. carotovorum DSM 30168.
Experiment [7] concerns Pseudomonas syringae pv. tomato DC3000.
Experiment [8] relates to Pseudomonas corrugata DSM 7228.
In experiment [9] the test system is Clavibacter michiganensis subsp. michiganensis DSM 46294.
The test system of experiment [10] is Pseudomonas syringae pv. syringae DSM 10604.
In experiment [11] the test system is Staphylococcus aureus ATCC 43300.
Experiment [12] has as its system Bacillus subtilis ATCC 6051.
The test system of experiment [13] is Pseudomonas aeruginosa ATCC 27853.
The test system of experiment [14] is Cryptococcus neoformans ATCC 208821.
For experiment [15], the system named is Klebsiella pneumoniae ATCC 700603.
Experiment [16] relates to Escherichia coli ATCC 25922.
Experiment [17] has as its system Klebsiella pneumoniae ATCC BAA-2146.
Experiment [18] has as its system Klebsiella pneumoniae ATCC 13883.
Experiment [19] has as its system Acinetobacter baumannii ATCC 19606.
The test system of experiment [20] is Candida albicans ATCC 90028.
The subject of experiment [21] is Pseudomonas aeruginosa PAO1.
Experiment [22] deals with Staphylococcus aureus NCTC 8325-4.

Molecule `CC[C@H](C)[C@H](NC(=O)[C@H](CO)NC(=O)[C@H](CCCCN)NC(=O)[C@H](CO)NC(=O)[C@H](Cc1cnc[nH]1)NC(=O)[C@H](CCCN=C(N)N)NC(=O)[C@H](Cc1cnc[nH]1)NC(=O)[C@H](CO)NC(=O)[C@H](CCC(N)=O)NC(=O)[C@H](Cc1ccc(O)cc1)NC(=O)[C@H](CC(N)=O)NC(=O)[C@H](CC(N)=O)NC(=O)[C@@H]1CCCN1C(=O)[C@H](CO)NC(=O)CNC(=O)[C@H](Cc1ccccc1)NC(=O)CN)C(=O)N1CCC[C@H]1C(=O)NCC(=O)N[C@@H](CCCN=C(N)N)C(=O)O` [GFGSPNNYQSHRHSKSIPGR] yielded an MIC in [1] of at least 75 µM.
As for `CC[C@H](C)[C@H](NC(=O)CNC(=O)[C@@H]1CCCN1C(=O)[C@H](CC(C)C)NC(=O)[C@H](C)NC(=O)[C@H](CC(N)=O)NC(=O)[C@H](CCCCN)NC(=O)[C@@H](NC(=O)[C@@H](NC(=O)[C@H](CO)NC(=O)[C@H](CC(C)C)NC(=O)[C@@H](NC(=O)CN)C(C)C)C(C)C)[C@@H](C)CC)C(=O)N[C@@H](CCSC)C(=O)N[C@@H](CCCN=C(N)N)C(=O)N[C@@H](Cc1ccccc1)C(=O)N[C@H](C(=O)N[C@@H](C)C(N)=O)[C@@H](C)CC` [GVLSVIKNALPGIMRFIA], the MIC in experiment [2] was at least 33.7 µM; in experiment [3], 4.21 µM (≈ 8 µg/mL); in experiment [4], 4.21 µM (≈ 8 µg/mL).
As for `CC[C@H](C)[C@H](NC(=O)[C@H](CC(C)C)NC(=O)[C@H](CCCN=C(N)N)NC(=O)[C@H](CCCCN)NC(=O)[C@H](CC(C)C)NC(=O)[C@H](CC(C)C)NC(=O)[C@H](CCCCN)NC(=O)[C@H](CCCCN)NC(=O)[C@H](CCCN=C(N)N)NC(=O)[C@@H](N)CCCCN)C(N)=O` [KRKKLLKRLI], the MIC in [5] was determined as 7.72 µM (≈ 9.99 µg/mL); in experiment [6] it was 7.72 µM (≈ 9.99 µg/mL); in [7] it was 0.772 µM (≈ 0.999 µg/mL); in experiment [8] it was 0.386 µM (≈ 0.5 µg/mL); in experiment [9] it was 7.72 µM (≈ 9.99 µg/mL); in experiment [10], 0.0772 µM (≈ 0.1 µg/mL).
With `CC(C)C[C@H](NC(=O)[C@H](CC(C)C)NC(=O)[C@H](CCCN=C(N)N)NC(=O)[C@H](CCCCN)NC(=O)[C@H](CC(C)C)NC(=O)[C@H](CC(C)C)NC(=O)[C@H](CCCCN)NC(=O)[C@H](CCCCN)NC(=O)[C@H](CCCN=C(N)N)NC(=O)[C@@H](N)CCCCN)C(N)=O` [KRKKLLKRLL], the MIC was determined as 3.86 µM (≈ 5 µg/mL) in [5]; 7.72 µM (≈ 9.99 µg/mL) in experiment [6]; 0.772 µM (≈ 0.999 µg/mL) in experiment [7]; 0.0772 µM (≈ 0.1 µg/mL) in experiment [8]; 3.86 µM (≈ 5 µg/mL) in [9]; 0.0772 µM (≈ 0.1 µg/mL) in experiment [10].
As to `CC[C@H](C)[C@@H]1NC(=O)CNC(=O)[C@H](CCCN=C(N)N)NC(=O)[C@H](Cc2ccc(O)cc2)NC(=O)[C@@H](NC(=O)[C@@H](NC(=O)[C@H](CCCN=C(N)N)NC(=O)[C@H](Cc2ccccc2)NC(=O)[C@H](C)NC(=O)[C@H](Cc2c[nH]c3ccccc23)NC(=O)[C@@H](N)CCCCN)C(C)C)CSSC[C@@H](C(=O)N[C@@H](Cc2ccc(O)cc2)C(=O)N[C@@H](CCCN=C(N)N)C(=O)N[C@@H](CCCN=C(N)N)C(=O)N[C@@H](C)C(=O)N[C@@H](CCCN=C(N)N)C(=O)O)NC1=O` [KWAFRVCYRGICYRRAR], the MIC stood at 3.63 µM (≈ 7.99 µg/mL) in experiment [11]; 0.0567 µM (≈ 0.125 µg/mL) in [12]; 0.907 µM (≈ 2 µg/mL) in [13]; 0.454 µM (≈ 0.999 µg/mL) in [14]; 0.454 µM (≈ 0.999 µg/mL) in experiment [15]; 0.113 µM (≈ 0.25 µg/mL) in experiment [16]. Further, the MIC in the experiment with Acinetobacter baumannii is 0.227 µM (≈ 0.5 µg/mL); in experiment [17] it was 0.454 µM (≈ 0.999 µg/mL); in [18], 0.454 µM (≈ 0.999 µg/mL); against Pseudomonas aeruginosa, 3.63 µM (≈ 7.99 µg/mL); in experiment [19], 0.113 µM (≈ 0.25 µg/mL); in the experiment on Klebsiella pneumoniae, over 7.26 µM. This molecule also displayed an MIC in experiment [20] of 3.63 µM (≈ 7.99 µg/mL).
On to `CC[C@H](C)[C@@H]1NC(=O)CNC(=O)[C@H](CCCN=C(N)N)NC(=O)[C@H](Cc2ccc(O)cc2)NC(=O)[C@@H]2CSSC[C@H](NC1=O)C(=O)N[C@@H](Cc1ccc(O)cc1)C(=O)N[C@@H](CCCN=C(N)N)C(=O)N[C@@H](CCCN=C(N)N)C(=O)N[C@H](C(=O)N[C@@H](CCCN=C(N)N)C(=O)O)CSSC[C@H](NC(=O)[C@H](Cc1c[nH]c3ccccc13)NC(=O)[C@@H](N)CCCCN)C(=O)N[C@@H](Cc1ccccc1)C(=O)N[C@@H](C)C(=O)N[C@@H](C(C)C)C(=O)N2` [KWCFAVCYRGICYRRCR], for which the MIC in experiment [11] came out at 0.229 µM (≈ 0.499 µg/mL); in experiment [12] it was 0.0137 µM (≈ 0.0299 µg/mL); in experiment [13], 0.115 µM (≈ 0.25 µg/mL); in [14], 0.115 µM (≈ 0.25 µg/mL); in experiment [15], 0.229 µM (≈ 0.499 µg/mL); in experiment [16], 0.0572 µM (≈ 0.125 µg/mL). Moreover, the MIC is 0.0572 µM (≈ 0.125 µg/mL) against Acinetobacter baumannii; 0.229 µM (≈ 0.499 µg/mL) in experiment [17]; 0.0572 µM (≈ 0.125 µg/mL) in experiment [18]; 0.229 µM (≈ 0.499 µg/mL) with Pseudomonas aeruginosa; 0.0275 µM (≈ 0.0599 µg/mL) in experiment [19]; 3.66 µM (≈ 7.99 µg/mL) in the experiment on Klebsiella pneumoniae. The molecule further returned an MIC in experiment [20] of 1.83 µM (≈ 3.99 µg/mL).
For `CC(C)[C@@H]1NC(=O)[C@H](CCCN=C(N)N)NC(=O)[C@H](Cc2ccccc2)NC(=O)[C@@H](NC(=O)[C@H](Cc2c[nH]c3ccccc23)NC(=O)[C@@H](N)CCCCN)CSSC[C@@H](C(=O)N[C@@H](CCCN=C(N)N)C(=O)O)NC(=O)[C@H](CCCN=C(N)N)NC(=O)[C@H](CCCN=C(N)N)NC(=O)[C@H](Cc2ccc(O)cc2)NC(=O)[C@@H]2CSSC[C@H](NC1=O)C(=O)N[C@@H](Cc1ccc(O)cc1)C(=O)N[C@@H](CCCN=C(N)N)C(=O)NCC(=O)NCC(=O)N2` [KWCFRVCYRGGCYRRCR], the MIC was determined as 1.81 µM (≈ 3.99 µg/mL) in experiment [11]; 0.113 µM (≈ 0.25 µg/mL) in experiment [12]; 0.452 µM (≈ 0.998 µg/mL) in [13]; 0.452 µM (≈ 0.998 µg/mL) in [14]; 0.226 µM (≈ 0.499 µg/mL) in experiment [15]; 0.113 µM (≈ 0.25 µg/mL) in experiment [16]. Moreover, the MIC came to 0.226 µM (≈ 0.499 µg/mL) in the experiment with Acinetobacter baumannii; 0.904 µM (≈ 2 µg/mL) in experiment [17]; 0.113 µM (≈ 0.25 µg/mL) in [18]; 1.81 µM (≈ 3.99 µg/mL) against Pseudomonas aeruginosa; 0.226 µM (≈ 0.499 µg/mL) in experiment [19]; 3.62 µM (≈ 7.99 µg/mL) in the experiment on Klebsiella pneumoniae. In addition, the minimum inhibitory concentration (MIC) in experiment [20] was found to be 3.62 µM (≈ 7.99 µg/mL).
In the case of `CC(C)C[C@H](NC(=O)[C@H](CCCCN)NC(=O)[C@H](CCCCN)NC(=O)[C@H](CC(C)C)NC(=O)[C@H](CC(C)C)NC(=O)[C@H](CCCCN)NC(=O)[C@H](CCCCN)NC(=O)[C@@H](N)CC(C)C)C(N)=O` [LKKLLKKL], the minimal inhibitory concentration (MIC) in the experiment with Escherichia coli K-12 was at least 500 µM; in the experiment with Klebsiella pneumoniae it was over 500 µM; in [21] it was over 500 µM; in experiment [22], at least 500 µM.
Consider `CC[C@H](C)[C@H](NC(=O)[C@H](CC(C)C)NC(=O)[C@H](CCCCN)NC(=O)[C@H](CCCCN)NC(=O)[C@@H](NC(=O)[C@@H](NC(=O)[C@H](CCCCN)NC(=O)[C@H](CCCCN)NC(=O)[C@H](CCCCN)NC(=O)[C@H](CCCCN)NC(=O)[C@H](CCCCN)NC(=O)[C@@H](N)CCCN=C(N)N)[C@@H](C)CC)[C@@H](C)CC)C(N)=O` [RKKKKKIIKKLI], for which the MIC in [5] came to 6.56 µM (≈ 9.99 µg/mL); in experiment [6], 6.56 µM (≈ 9.99 µg/mL); in [7], 1.64 µM (≈ 2.5 µg/mL); in experiment [8], 1.64 µM (≈ 2.5 µg/mL); in experiment [9], 6.56 µM (≈ 9.99 µg/mL); in experiment [10], 0.328 µM (≈ 0.5 µg/mL).

As a reminder, the MIC is the smallest concentration in the dilution series that meets the test's criterion for growth inhibition. Lower therefore signals greater potency.
